Molecular target: T1, Cdk2(2-298) (Homo sapiens, UniProt P24941)
T1 construct: Biotinylated N-terminal avi-tagged Cdk2(2-298) or Cdk1(1-297) was immobilized
Assay: Surface Plasmon Resonance (SPR) compound interaction, Biacore 8K
Assay type: binding
Details: single-cycle kinetics (SCK, "S"), dissociation 1800 sec, read-out: Activity rating (KD)
Method in brief: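 Biotinylated N-terminal avi-tagged Cdk2(2-298) captured on streptavidin chip at 2500–3000 RU in 25 mM HEPES, 150 mM NaCl, 0.05% Tween20, pH 7.5, 1% DMSO final. Eight 3-fold compound concentrations injected 120 sec at 30 μl/min, multi- or single-cycle kinetics; dissociation 180 sec (MCK) or 1800 sec (SCK).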

| Structure (SMILES) | Kd [nM] |
| --- | --- |
| O=S(=O)(Nc1ccc(Oc2ccncc2-c2ccnc(NC3CNC3)n2)c(F)c1)c1ccccc1Cl [Compound 98] | 11 to 100 |
| CN1CC2(CC(Nc3nccc(-c4cnccc4Oc4ccc(NS(=O)(=O)c5ccccc5Cl)cc4F)n3)C2)C1 [Compound 99] | 100 to 1000 |
| CN(CCNc1nccc(-c2cnccc2Oc2ccc(NS(=O)(=O)c3ccccc3Cl)cc2F)n1)S(C)(=O)=O [Compound 100] | ≤ 10 |
| O=S(=O)(Nc1ccc(Oc2ccncc2-c2ccnc(NC3CN(C4COC4)C3)n2)c(F)c1)c1ccccc1Cl [Compound 101] | 11 to 100 |
| CN1CC(Nc2nccc(-c3cnccc3Oc3ccc(NS(=O)(=O)c4ccccc4Cl)cc3F)n2)C1 [Compound 102] | 11 to 100 |
| CS(=O)(=O)N1CCC[C@H](Nc2nccc(-c3cnccc3Oc3ccc(NS(=O)(=O)c4ccccc4Cl)cc3F)n2)C1 [Compound 103] | 100 to 1000 |
| COCCNCCNc1nccc(-c2cnccc2Oc2ccc(NS(=O)(=O)c3ccccc3Cl)cc2F)n1 [Compound 104] | 100 to 1000 |
| COCCN1CC(Nc2nccc(-c3cnccc3Oc3ccc(NS(=O)(=O)c4ccccc4Cl)cc3F)n2)C1 [Compound 105] | 11 to 100 |
| O=S(=O)(Nc1ccc(Oc2ccncc2-c2ccnc(NC3CN(CCO)C3)n2)c(F)c1)c1ccccc1Cl [Compound 106] | 100 to 1000 |
| COCCOCCN1CC(Nc2nccc(-c3cnccc3Oc3ccc(NS(=O)(=O)c4ccccc4Cl)cc3F)n2)C1 [Compound 107] | 100 to 1000 |
| N[C@H]1CC[C@H](Nc2nccc(-c3cccnc3Sc3ccc(NS(=O)(=O)c4ccccc4Cl)cc3F)n2)CC1 [Compound 108, N-(4-((3-(2-(((1r,4r)-4-Aminocyclohexyl)amino)pyrimidin-4-yl)pyridin-2-yl)thio)-3-fluorophenyl) 2-chlorobenzenesulfonamide] | ≤ 10 |
| O=S(=O)(Nc1ccc(Sc2ncccc2-c2ccnc(N[C@H]3CCCNC3)n2)c(F)c1)c1ccccc1Cl [Compound 109, N-[3-Fluoro-4-[[3-[2-[[(3S)-3-piperidyl]amino]pyrimidin-4-yl]-2-pyridyl]thio]phenyl] 2-chlorobenzenesulfonamide] | ≤ 10 |
| N[C@H]1CC[C@H](Nc2nccc(-c3cccnc3Sc3ccc(NS(=O)(=O)c4ccccc4)cc3F)n2)CC1 [Compound 110, N-(4-((3-(2-(((1r,4r)-4-Aminocyclohexyl)amino)pyrimidin-4-yl)pyridin-2-yl)thio)-3-fluorophenyl) benzenesulfonamide] | 11 to 100 |
| N[C@H]1CC[C@H](Nc2nccc(-c3cccnc3Sc3ccc(NS(=O)(=O)c4cccc5ccccc45)cc3F)n2)CC1 [Compound 111, N-(4-((3-(2-(((1r,4r)-4-Aminocyclohexyl)amino)pyrimidin-4-yl)pyridin-2-yl)thio)-3-fluorophenyl) naphthalene-1-sulfonamide] | 11 to 100 |
| O=S(=O)(Nc1ccc(Sc2ncccc2-c2ccnc(N[C@H]3CCCNC3)n2)c(F)c1)c1cccc2ccccc12 [Compound 113, N-[3-fluoro-4-[[3-[2-[[(3S)-3-piperidyl]amino]pyrimidin-4-yl]-2-pyridyl]sulfanyl]phenyl] naphthalene-1-sulfonamide] | 100 to 1000 |
| N[C@H]1CC[C@H](Nc2nccc(-c3cnccc3Sc3ccc(NS(=O)(=O)c4ccccc4Cl)cc3F)n2)CC1 [Compound 116, N-[4-[[3-[2-[((1r,4r)4 aminocyclohexyl)amino]pyrimidin-4-yl]-4-pyridyl]thio]-3-fluoro-phenyl] 2-chlorobenzenesulfonamide] | ≤ 10 |
| N[C@H]1CC[C@H](Nc2nccc(-c3cnccc3Sc3ccc(NS(=O)(=O)c4ccccc4)cc3F)n2)CC1 [Compound 117, N-[4-(1r,4r)[[3-[2-[(4-aminocyclohexyl)amino]pyrimidin-4-yl]-4-pyridyl]sulfanyl]-3-fluorophenyl] benzenesulfonamide] | 11 to 100 |
| N[C@H]1CC[C@H](Nc2nccc(-c3cnccc3Sc3ccc(NS(=O)(=O)c4cccc5ccccc45)cc3F)n2)CC1 [Compound 118, N-[4-(1r,4r)[[3-[2-[(4-Aminocyclohexyl)amino]pyrimidin-4-yl]-4-pyridyl]sulfanyl]-3-fluorophenyl]naphthalene-1-sulfonamide] | 100 to 1000 |
| O=S(=O)(Nc1ccc(Oc2ncncc2-c2ccnc(N[C@H]3CCCNC3)n2)c(F)c1)c1ccccc1Cl [Compound 127, N-[3-fluoro-4-[5-[2-[[(3S)-3-piperidyl]amino]pyrimidin-4-yl]pyrimidin-4-yl]oxyphenyl] 2-chlorobenzenesulfonamide] | 11 to 100 |
| N[C@H]1CC[C@H](Nc2nccc(-c3cncnc3Oc3ccc(NS(=O)(=O)c4ccccc4Cl)cc3F)n2)CC1 [Compound 128, N-[4-[5-[2-[(1r,4r)(4-aminocyclohexyl)amino]pyrimidin-4-yl]pyrimidin-4-yl]oxy-3-fluorophenyl] 2-chlorobenzenesulfonamide] | ≤ 10 |
| O=S(=O)(Nc1ccc(Oc2ncncc2-c2ccnc(N[C@H]3CCCNC3)n2)c(F)c1)c1ccccc1 [Compound 129, N-[3-fluoro-4-[5-[2-[[(3S)-3-piperidyl]amino]pyrimidin-4-yl]pyrimidin-4-yl]oxy-phenyl] benzenesulfonamide] | 100 to 1000 |
| N[C@H]1CC[C@H](Nc2nccc(-c3cncnc3Oc3ccc(NS(=O)(=O)c4ccccc4)cc3F)n2)CC1 [Compound 130, N-[4-[5-[2-[(1r,4r)(4-aminocyclohexyl)amino]pyrimidin-4-yl]pyrimidin-4-yl]oxy-3-fluoro-phenyl] benzenesulfonamide] | 1000 to 5000 |
| N[C@H]1CC[C@H](Nc2nccc(-c3ccncc3Oc3ccc(NS(=O)(=O)c4ccccc4Cl)cc3F)n2)CC1 [Compound 131, N-[4-(1r,4r)[[4-[2-[(4-aminocyclohexyl)amino]pyrimidin-4-yl]-3-pyridyl]oxy]-3-fluorophenyl] 2-chlorobenzenesulfonamide] | 11 to 100 |
| N[C@H]1CC[C@H](Nc2nccc(-c3ncccc3Oc3ccc(NS(=O)(=O)c4ccccc4Cl)cc3F)n2)CC1 [Compound 132, N-[4-[[2-[2-(1r,4r)[(4-Aminocyclohexyl)amino]pyrimidin-4-yl]-3-pyridyl]oxy]-3-fluoro-phenyl] 2-chlorobenzenesulfonamide] | 100 to 1000 |
